# What was measured:
# [1] = molecular target: T1, human CB2 (Homo sapiens, UniProt P34972, Q63R); assay: Real-time BRET CAMYEL cAMP biosensor, forskolin-stimulated HEK-293S cells transfected with human CB2; assay type: cell-based
# T1 construct: HA (N); 3TCS (N); expressed in transfected cells; host or cells: HEK-293S cells, transient transfection (PEI max)
# Procedure: (§1) HEK-293S cells (HEK-S; generously provided by Professor David Poyner, Aston Research Centre, RRID:CVCL_A784 [48]) were maintained in T75 flasks (Corning-Costar) with Dulbecco’s Modified Eagle’s Medium high glucose with phenol red, L-glutamine and sodium pyruvate (DMEM; Cytiva SH30243), and 8% foetal bovine serum (FBS; NZ-origin, Moregate Biotech) at 37 °C in a humidified atmosphere containing 5% CO2.
# (§2) Poly-D-Lysine (PDL) (Sigma-Aldrich) at 0.05 mg/mL in PBS was incubated in wells of 96-well Solid White Flat Bottom Polystyrene TC-treated Microplate (Corning-Costar) at 37 °C for 1 h, then washed with PBS prior to seeding and transfection. Cells were seeded at 45,000 cells/well in DMEM supplemented with 12% FBS.
# (§3) Plasmids encoding human CB2 (HA-3TCS-hCB2 63R pcDNA5/FRT; 28.5 ng per well) or no receptor (pcDNA5/FRT/CAT; 23.5 ng per well; Thermo Fisher Scientific, Waltham, MA, USA), and either His-CAMYEL (in pcDNA3L; 24 ng per well; ATCC MBA-277; previously described in [49]), or a mix of Rluc8-hβ-arrestin2-Sp1 (in pcDNA3; 0.5 ng per well; previously described in [19]) and Mem-linker-Citrine-SH3 (in pcDNA3; 20 ng per well; previously described in [19, 50]) were diluted in DMEM. Diluted DNA was then co-incubated with polyethyleneimine max (PEI max; Polysciences, Warrington, PA, USA) (Total DNA:PEI ratio of 1:7.5 or 1:6.7 for cAMP or β-arrestin-2 experiments, respectively) in DMEM for 1 h at room temperature (~19–21 °C). These transfection mixes were then added to plated cells, resulting in a final concentration of 8% FBS. Plates were incubated for ~48 h before assaying.
# (§4) The protocol for measuring levels of cellular cAMP via real-time BRET biosensor (CAMYEL) is adapted from previous publications. In all cAMP experiments, forskolin (Tocris Bioscience, Bristol, UK) was used to stimulate the activation of adenylyl cyclase to raise intracellular cAMP levels. Vehicle (DMSO) was maintained at an equivalent concentration across all conditions. Assays were carried out in technical duplicate. Then, ~48 h post-transfection, plating media was aspirated, and wells were washed with H+B, consisting of HBSS (Life Technologies) and 1 mg/mL BSA (ICPbio). H+B was then added to the wells to initiate a 30 min serum starve at 37 °C. Post-serum starve, coelenterazine h (final concentration 5 μM, NanoLight Technologies, Norman, OK, USA, #301) was added to the wells, and a 5 min pre-reading was conducted using the LUMIstar® Omega luminometer (Rluc and YFP emissions detected at 460 nm and 535 nm, respectively; BMG Labtech, Ortenberg, Germany). Next, forskolin (final concentration 5 μM) was added to all wells (except vehicle-only wells which received DMSO), and plate reading resumed for 5 min. Lastly, CB2 compounds of interest with forskolin, vehicle with forskolin, or vehicle without forskolin, were added to their respective wells, and a final 20 min read was conducted. All compounds and reagents were diluted in H+B prior to addition to the plate. For β-arrestin-2 recruitment assays, an equivalent procedure was followed except no forskolin was included in the assay stimulations.
# (§5) BRET ratios were calculated by dividing YFP emissions by Rluc emissions, then for the cAMP assay, normalised to the mean of baseline ratio reads (where only coelenterazine h was present) to eliminate any variability present prior to drug addiction. An increase in BRET ratio indicated a decrease in cAMP levels or increase in β-arrestin-2 recruitment. Lowess smoothing (GraphPad Prism) was applied to individual technical replicates within an assay. Concentration response curves for the mean of technical replicates (CRC; “log(agonist) vs. response (three parameters)” nonlinear regression curve model, Hill slope constrained to 1) were drawn for the mean ratios over 20 min stimulation or individual time-points.
# [2] = system: CB2; set-up: method as in PMID 22444677; conditions: error not shown; cited from earlier work
# [3] = molecular target: T1, human CB2; assay: Real-time BRET β-arrestin-2 plasma membrane translocation, HEK-293S cells transfected with human CB2; assay type: cell-based; conditions: mean over 20 min stimulation
# Procedure: as §1, §2, §3, §4, §5
# T1 sequence (P34972 whole entry Q63R): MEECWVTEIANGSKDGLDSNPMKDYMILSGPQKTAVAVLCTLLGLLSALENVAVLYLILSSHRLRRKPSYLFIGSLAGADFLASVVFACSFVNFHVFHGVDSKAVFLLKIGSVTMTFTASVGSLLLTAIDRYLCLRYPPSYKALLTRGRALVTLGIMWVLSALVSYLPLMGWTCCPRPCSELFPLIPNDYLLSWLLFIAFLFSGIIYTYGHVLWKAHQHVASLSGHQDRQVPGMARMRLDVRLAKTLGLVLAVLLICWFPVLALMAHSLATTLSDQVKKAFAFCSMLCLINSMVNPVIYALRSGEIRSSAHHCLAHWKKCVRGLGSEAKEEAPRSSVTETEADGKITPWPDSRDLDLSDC
smiles,measurement,setting,value
"CCc1c(C)cc(C(=O)NC2(C(=O)O)CCCCC2)c(=O)n1Cc1ccc(F)cc1 [UOSS77, reference compound]",2.5 min EC75 concentration (log[compound] M),"[1]; cAMP assay, calculated from mean EC50 at 2.5 min, Figure S1",-7.6 log M
same,time of peak cAMP response (maximal efficacy),"[1]; during 20 min stimulation, 5 μM forskolin",2.5 min
same,EC50,"[1]; mean over 20 min stimulation, 5 μM forskolin, mean ± SEM, read-out: cAMP pEC50 (converted)",12.6 nM
same,cAMP ΔEmax (absolute magnitude percentage decrease from 100%),"[1]; mean over 20 min stimulation, 5 μM forskolin, normalised to V 0% and F 100%",33.8 ± 5.5%
same,agonism pEC50 (cAMP),[2],7.6
same,EC50,"[3]; mean ± SEM, read-out: β-arrestin-2 translocation pEC50 (converted)",126 nM
same,β-arrestin-2 translocation ΔEmax (% increase above V),[3]; normalised to vehicle 100%,11.1 ± 0.7%
